Target: T1, ΔF508-CFTR (Homo sapiens, UniProt P13569, DEL508-508)
T1 construct: expressed in transfected cells
Assay: Membrane potential optical (FRET/VIPR) assay, identification of correction compounds
Type: cell-based
Details: Table 3, assay not given; for Emax: read-out: % Activity / % Efficacy (relative efficacy)
In short: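 NIH3T3 mouse fibroblasts stably expressing ΔF508-CFTR were exposed to compound for 16 h at 37° C in serum-free medium, then loaded with DiSBAC2(3)/CC2-DMPE. After addition of 10 μM forskolin plus 20 μM genistein in Cl⁻-free gluconate bath (pH 7.4), depolarization from Cl⁻ efflux was read by FRET (VIPR II).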

T1 sequence (P13569 with tags, fused parts or gaps DEL508-508): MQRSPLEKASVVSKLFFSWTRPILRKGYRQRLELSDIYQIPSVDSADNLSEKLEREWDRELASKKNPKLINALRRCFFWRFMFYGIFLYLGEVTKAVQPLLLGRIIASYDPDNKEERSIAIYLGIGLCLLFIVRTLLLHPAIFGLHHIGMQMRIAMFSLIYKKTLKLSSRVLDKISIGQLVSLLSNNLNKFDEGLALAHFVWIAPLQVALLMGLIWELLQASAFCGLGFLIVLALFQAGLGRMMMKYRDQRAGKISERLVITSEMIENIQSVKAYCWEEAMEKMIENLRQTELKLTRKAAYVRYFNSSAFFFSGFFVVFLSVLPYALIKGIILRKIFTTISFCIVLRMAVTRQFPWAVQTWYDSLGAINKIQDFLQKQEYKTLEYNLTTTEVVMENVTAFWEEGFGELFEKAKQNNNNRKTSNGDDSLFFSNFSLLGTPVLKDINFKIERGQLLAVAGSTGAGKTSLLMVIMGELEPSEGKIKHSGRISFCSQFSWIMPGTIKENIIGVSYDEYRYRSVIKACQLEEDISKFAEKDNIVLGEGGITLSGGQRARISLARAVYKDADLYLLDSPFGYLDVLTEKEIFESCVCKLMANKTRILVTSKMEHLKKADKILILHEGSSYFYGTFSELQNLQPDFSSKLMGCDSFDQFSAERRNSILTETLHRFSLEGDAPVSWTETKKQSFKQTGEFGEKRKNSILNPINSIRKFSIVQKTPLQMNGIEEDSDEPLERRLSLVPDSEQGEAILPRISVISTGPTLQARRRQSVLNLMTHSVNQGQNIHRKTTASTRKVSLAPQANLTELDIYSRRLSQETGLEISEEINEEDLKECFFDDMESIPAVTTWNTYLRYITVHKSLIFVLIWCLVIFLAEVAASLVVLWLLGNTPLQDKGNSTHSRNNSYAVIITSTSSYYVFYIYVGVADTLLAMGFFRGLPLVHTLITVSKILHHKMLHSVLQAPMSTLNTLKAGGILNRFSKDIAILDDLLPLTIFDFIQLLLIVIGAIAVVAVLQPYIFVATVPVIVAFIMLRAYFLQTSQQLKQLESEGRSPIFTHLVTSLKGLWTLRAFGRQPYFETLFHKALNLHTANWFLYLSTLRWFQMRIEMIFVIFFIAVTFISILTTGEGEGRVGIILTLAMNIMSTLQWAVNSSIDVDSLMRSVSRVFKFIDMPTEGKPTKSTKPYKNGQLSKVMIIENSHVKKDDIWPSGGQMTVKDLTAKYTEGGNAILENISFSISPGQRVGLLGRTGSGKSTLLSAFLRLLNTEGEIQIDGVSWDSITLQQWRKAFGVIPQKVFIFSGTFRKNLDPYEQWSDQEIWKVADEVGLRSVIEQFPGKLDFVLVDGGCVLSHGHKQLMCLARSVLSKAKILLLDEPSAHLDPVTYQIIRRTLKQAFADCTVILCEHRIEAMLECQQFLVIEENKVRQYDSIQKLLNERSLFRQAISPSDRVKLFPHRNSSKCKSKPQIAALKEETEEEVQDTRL

SMILES	% Activity / % Efficacy (relative efficacy)	EC50 [µM]	Emax [%]
O=C(Nc1ncc(Cc2ccccc2Cl)s1)C1(c2ccc3c(c2)OCO3)CC1 [Example 56]	++ (“++” means between 25% to 100%)	< 10	–
COc1ccc(C2(C(=O)Nc3ncc(S(=O)(=O)c4ccccc4OC)s3)CC2)cc1 [Example 88]	+++ (“+++” means>100%)	< 10	–
COc1ccc(C2(C(=O)Nc3ncc(Sc4cccc(Cl)c4)s3)CC2)cc1 [Example 37]	–	< 10	> 100
COc1ccc(C2(C(=O)Nc3ncc(Cc4ccccc4C(N)=O)s3)CC2)cc1 [Example 76]	+++ (“+++” means>100%)	< 10	–
C=CCOC(c1cnc(NC(=O)C2(c3ccc4c(c3)OCO4)CC2)s1)c1ccccc1Cl (stereo not shown) [Example 251]	–	< 10	> 100
Cc1csc(NC(=O)C2(c3ccc4c(c3)OCO4)CC2)c1C(N)=O [Example 289]	–	< 10	25 to 100
COCCN1CCN(C(c2cnc(NC(=O)C3(c4ccc5c(c4)OCO5)CC3)s2)c2ccccc2Cl)CC1 (stereo not shown) [Example 238]	+++ (“+++” means>100%)	< 10	–
COc1ccc(C2(C(=O)Nc3ncc(Cc4cccc(Cl)c4)o3)CC2)cc1 [Example 153]	++ (“++” means between 25% to 100%)	< 10	–
COc1ccc(C2(C(=O)Nc3ncc(C(=O)c4ccccc4Cl)s3)CC2)cc1 [Example 44]	–	< 10	> 100
O=C(Nc1nc(-c2ccc(Cl)c(Cl)c2)cs1)C1(c2ccc3c(c2)OCO3)CC1 [Example 117]	–	10 to 25	25 to 100
COc1ccc(C2(C(=O)Nc3ncc(Cc4c(F)cccc4OC)s3)CC2)cc1 [Example 193]	+++ (“+++” means>100%)	< 10	–
COc1ccc(CC2(C(=O)Nc3ncc(Cc4ccccc4Cl)s3)CC2)cc1 [Example 201]	++ (“++” means between 25% to 100%)	< 10	–
COc1ccc(C2(C(=O)Nc3ncc(Sc4cccc(C(=O)O)c4)s3)CC2)cc1 [Example 97]	+++ (“+++” means>100%)	< 10	–
COc1cccc(C2(C(=O)Nc3ncc(Cc4ccccc4C#N)s3)CC2)c1 [Example 69]	+++ (“+++” means>100%)	< 10	–
CCCc1nc(NC(=O)C2(c3ccc4c(c3)OCO4)CC2)sc1C(=O)NCC [Example 192]	+++ (“+++” means>100%)	< 10	–
Cc1ccc(-c2csc(NC(=O)C3(c4ccc5c(c4)OCO5)CC3)n2)cc1 [Example 82]	+++ (“+++” means>100%)	< 10	–
CCOC(c1cnc(NC(=O)C2(c3ccc4c(c3)OCO4)CC2)s1)c1ccccc1Cl (stereo not shown) [Example 240]	+++ (“+++” means>100%)	< 10	–
COc1ccc(Cc2cnc(NC(=O)C3(c4ccc(OC)cc4)CC3)s2)cc1 [Example 180]	+++ (“+++” means>100%)	< 10	–

SMILES	% Activity / % Efficacy (relative efficacy)	EC50 [µM]	Emax [%]
O=C(Nc1ncc(C(c2ccccc2Cl)N2CCOCC2)s1)C1(c2ccc3c(c2)OCO3)CC1 (stereo not shown) [Example 203]	++ (“++” means between 25% to 100%)	< 10	–
CC1CCc2c(sc(NC(=O)C3(c4ccc5c(c4)OCO5)CC3)c2C#N)C1 (stereo not shown) [Example 296]	–	< 10	> 100
COc1ccc(C2(C(=O)Nc3nc(-c4cccc(Cl)c4)cs3)CC2)cc1 [Example 123]	+++ (“+++” means>100%)	< 10	–
COc1ccccc1C(c1cnc(NC(=O)C2(c3ccc4c(c3)OCO4)CC2)s1)N1CCCCC1 (stereo not shown) [Example 349]	–	< 10	> 100
COc1ccc(C2(C(=O)Nc3ncc(Sc4ccc(N)cc4)s3)CC2)cc1 [Example 96]	++ (“++” means between 25% to 100%)	< 10	–
COc1ccc(C2(C(=O)Nc3ncc(Cc4cnccc4OC)s3)CC2)cc1 [Example 242]	+++ (“+++” means>100%)	< 10	–
COc1ccc(C2(C(=O)Nc3ncc([S+]([O-])c4ccccc4OC)s3)CC2)cc1 (stereo not shown) [Example 87]	+++ (“+++” means>100%)	< 10	–
O=C(Nc1ncc(C2(c3ccccc3)CCCC2)s1)C1(c2ccc3c(c2)OCO3)CC1 [Example 111]	+++ (“+++” means>100%)	< 10	–
COc1ccc(C2(C(=O)Nc3nc(-c4ccccc4)cs3)CC2)cc1 [Example 17]	–	< 10	> 100
COc1cccc(C2(C(=O)Nc3ncc(Cc4ccccc4Cl)s3)CC2)c1 [Example 66]	+++ (“+++” means>100%)	< 10	–
COc1ccc(C2(C(=O)Nc3nc(-c4ccc(Cl)c(Cl)c4)cs3)CC2)cc1 [Example 124]	++ (“++” means between 25% to 100%)	25 to 60	–
COc1ccc(Cc2cnc(NC(=O)C3(c4ccc5c(c4)OCO5)CC3)s2)cc1 [Example 183]	+++ (“+++” means>100%)	< 10	–
COc1ccc(C2(C(=O)Nc3nc(-c4ccc(Cl)cc4)cs3)CC2)cc1 [Example 78]	+++ (“+++” means>100%)	< 10	–
COc1ccc(C2(C(=O)Nc3ncc(Cc4cc(F)ccc4OC)s3)CC2)cc1 [Example 179]	+++ (“+++” means>100%)	< 10	–
COC[C@@H]1CCCN1C(c1cccc(OC)c1)c1cnc(NC(=O)C2(c3ccc4c(c3)OCO4)CC2)s1 (stereo partly shown) [Example 345]	–	< 10	25 to 100
COc1ccc(C2(C(=O)Nc3nc(-c4ccc(S(C)(=O)=O)cc4)cs3)CC2)cc1 [Example 125]	+++ (“+++” means>100%)	< 10	–
CS(=O)(=O)Nc1cccc(C2(C(=O)Nc3ncc(Cc4ccccc4Cl)s3)CC2)c1 [Example 308]	–	< 10	25 to 100
COc1ccc(C2(C(=O)Nc3ncc(Cc4ccccc4Cl)s3)CC2)cc1OC [Example 55]	+++ (“+++” means>100%)	< 10	–

Continued, values first:

% Activity / % Efficacy (relative efficacy)	EC50 [µM]	Emax [%]	SMILES
–	< 10	> 100	CCCN(CC1CC1)C(c1cnc(NC(=O)C2(c3ccc4c(c3)OCO4)CC2)s1)c1ccccc1Cl (stereo not shown) [Example 435]
–	10 to 25	> 100	COCC1CCCN1C(c1cnc(NC(=O)C2(c3ccc4c(c3)OCO4)CC2)s1)c1ccccc1OC (stereo not shown) [Example 358]
–	< 10	> 100	O=C(Nc1ncc(C(Cc2ccccc2Cl)N2CCOCC2)s1)C1(c2ccc3c(c2)OCO3)CC1 (stereo not shown) [Example 461]
–	< 10	25 to 100	O=C(Nc1ncc(C(Cc2ccccc2Cl)N2CCCC2)s1)C1(c2ccc3c(c2)OCO3)CC1 (stereo not shown) [Example 453]
–	< 10	–	CC(C)C[C@H](CO)NC(c1cnc(NC(=O)C2(c3ccc4c(c3)OCO4)CC2)s1)c1cccc2c1OC(F)(F)O2 (stereo partly shown) [Example 498]
–	< 10	25 to 100	CN1CCCC1CCNC(c1cnc(NC(=O)C2(c3ccc4c(c3)OCO4)CC2)s1)c1ccccc1Cl (stereo not shown) [Example 405]
–	< 10	> 100	CC(C)[C@H](CO)NC(c1cnc(NC(=O)C2(c3ccc4c(c3)OCO4)CC2)s1)c1ccccc1F (stereo partly shown) [Example 483]
–	< 10	> 100	CC(C)(C)CCNC(c1cnc(NC(=O)C2(c3ccc4c(c3)OCO4)CC2)s1)c1ccccc1Cl (stereo not shown) [Example 428]
–	< 10	> 100	O=C(Nc1ncc(C(NCCc2ccccn2)c2ccccc2Cl)s1)C1(c2ccc3c(c2)OCO3)CC1 (stereo not shown) [Example 430]
–	< 10	25 to 100	CCOCCCNC(c1cnc(NC(=O)C2(c3ccc4c(c3)OCO4)CC2)s1)c1ccccc1Cl (stereo not shown) [Example 425]
–	< 10	25 to 100	CC(C)C[C@@H](CO)NC(c1cnc(NC(=O)C2(c3ccc4c(c3)OCO4)CC2)s1)c1ccccc1Cl (stereo partly shown) [Example 495]
–	< 10	> 100	CC(C)[C@H](CO)NC(c1cnc(NC(=O)C2(c3ccc4c(c3)OCO4)CC2)s1)c1ccccc1C(F)(F)F (stereo partly shown) [Example 481]
–	10 to 25	25 to 100	CS(=O)(=O)c1ccc(C(c2cnc(NC(=O)C3(c4ccc5c(c4)OCO5)CC3)s2)N2CCC[C@H]2C(N)=O)cc1 (stereo partly shown) [Example 377]
–	< 10	> 100	O=C(Nc1ncc(C(NCCC2=CCCCC2)c2ccccc2Cl)s1)C1(c2ccc3c(c2)OCO3)CC1 (stereo not shown) [Example 427]
–	< 10	25 to 100	O=C(Nc1ncc(C(c2cccc3c2OC(F)(F)O3)N2CC[C@@H](O)C2)s1)C1(c2ccc3c(c2)OCO3)CC1 (stereo partly shown) [Example 496]
–	< 10	> 100	COCCNC(c1cnc(NC(=O)C2(c3ccc4c(c3)OCO4)CC2)s1)c1ccccc1Cl (stereo not shown) [Example 439]
–	< 10	> 100	CC(C)[C@H](CO)NC(c1ccc2c(c1)OC(F)(F)O2)c1cnc(NC(=O)C2(c3ccc4c(c3)OCO4)CC2)s1 (stereo partly shown) [Example 493]
–	10 to 25	25 to 100	CCC(c1cnc(NC(=O)C2(c3ccc4c(c3)OCO4)CC2)s1)N1CCCC1 (stereo not shown) [Example 397]
–	< 10	> 100	COc1ccc(C2(C(=O)Nc3ncc(C(c4ccccc4Cl)N4CC[C@@H](O)C4)s3)CC2)cc1OC (stereo partly shown) [Example 451]
–	< 10	> 100	COc1cccc(C(c2cnc(NC(=O)C3(c4ccc5c(c4)OCO5)CC3)s2)N2CCCC2)c1 (stereo not shown) [Example 373]
–	10 to 25	> 100	O=C(Nc1ncc(C(c2ccccc2)N2CCC(O)CC2)s1)C1(c2ccc3c(c2)OCO3)CC1 (stereo not shown) [Example 351]
–	< 10	> 100	COc1cccc(C(c2cnc(NC(=O)C3(c4ccc5c(c4)OCO5)CC3)s2)N2CCOCC2)c1 (stereo not shown) [Example 374]

Reference: patent US7977322B2 (Vertex Pharmaceuticals Incorporated, priority 2004, dated 2011)
